Results from patent EP2368895A1, “Ferrocenyl flavonoids” (Centre National de la Recherche Scientifique (CNRS), priority 2010, dated 2011).

System: Murine B16 melanoma cells
Conditions: for IC50: murine B16 melanoma cells, MTT, 48 h exposure time, mean ± SD of 3 determinations
Experimental: Murine B16 melanoma cells were grown in Dulbecco's modified essential medium (DMEM) containing 2 mM L-glutamine, 10% fetal bovine serum, 100 U/ml penicillin and 100 µg/ml streptomycin (37°C, 5% CO2). Stock solutions of the compounds were prepared in DMSO and further diluted in DMEM at the indicated concentrations with a final DMSO concentration of not exceeding 1%. Exponentially growing cells were plated onto 96-well plates at a density of 5000 cells per well in 200 µl DMEM, and 24 h later the compounds were added for another 48 h. Control wells were exposed to 1% DMSO. Viability was assessed using the MTT (1-(4,5-dimethylthiazol-2-yl)-3,5-diphenyltetrazolium) test and absorbance was read at 562 nm in a microplate reader (BioKinetics Reader, EL340) (Carmichael et al. 1987).

| Substance | IC50 | cytotoxic activity |
| --- | --- | --- |
| (E)-1-(2-hydroxyphenyl)-3-ferrocenylprop-2-en-1-one [Compound 1a] | 43.7 ± 1.8 µM | – |
| 6-chloro-2-ferrocenyl-4H-chromen-4-one [Compound 2b] | 15.6 ± 0.3 µM | – |
| 6,8-dichloro-2-ferrocenyl-4H-chromen-4-one [Compound 2d] | 12.1 ± 0.4 µM | – |
| (E)-1-(5-bromo-2-hydroxyphenyl)-3-ferrocenylprop-2-en-1-one [Compound 1c] | 44.6 ± 2.8 µM | – |
| (E)-1-(3,5-dibromo-2-hydroxyphenyl)-3-ferrocenylprop-2-en-1-one [Compound 1e] | 84.2 ± 4.8 µM | decrease in cytotoxic activity |
| 6,8-dibromo-2-ferrocenyl-4H-chromen-4-one [Compound 2e] | 13.7 ± 1 µM | – |
| 6-bromo-2-ferrocenyl-4H-chromen-4-one [Compound 2c] | 15.9 ± 0.3 µM | – |
| (E)-1-(3,5-dichloro-2-hydroxyphenyl)-3-ferrocenylprop-2-en-1-one [Compound 1d] | 73.6 ± 2.6 µM | decrease in cytotoxic activity |
| 2-ferrocenyl-4H-chromen-4-one [Compound 2a] | 33.9 ± 0.8 µM | – |
| (E)-1-(5-chloro-2-hydroxyphenyl)-3-ferrocenylprop-2-en-1-one [Compound 1b] | 29.5 ± 1.8 µM | – |
| 6,8-difluoro-2-ferrocenyl-4H-chromen-4-one [Compound 2f] | 18 ± 0.2 µM | – |
| (E)-1-(3,5-difluoro-2-hydroxyphenyl)-3-ferrocenylprop-2-en-1-one [Compound 1f] | 49.4 ± 1.3 µM | decrease in cytotoxic activity |
